{"source": "ChEMBL document CHEMBL4765227", "about": "“Hit to lead optimization of a series of N-[4-(1,3-benzothiazol-2-yl)phenyl]acetamides as monoacylglycerol lipase inhibitors with potential anticancer activity” (Eur J Med Chem, 2016)", "format_in_all_cases": "functional", "settings_in_all_cases": "read-out: GI", "key": {"[1]": {"system": "CCRF-CEM", "assay": "Growth inhibition of human CCRF-CEM cells at 10 uM incubated for 48 hrs by sulforhodamine B assay relative to control"}, "[2]": {"system": "K562", "assay": "Growth inhibition of human K562 cells at 10 uM incubated for 48 hrs by sulforhodamine B assay relative to control"}, "[3]": {"system": "RPMI-8226", "assay": "Growth inhibition of human RPMI-8226 cells at 10 uM incubated for 48 hrs by sulforhodamine B assay relative to control"}, "[4]": {"system": "A549", "assay": "Growth inhibition of human A549/ATCC cells at 10 uM incubated for 48 hrs by sulforhodamine B assay relative to control"}, "[5]": {"system": "HOP-92", "assay": "Growth inhibition of human HOP-92 cells at 10 uM incubated for 48 hrs by sulforhodamine B assay relative to control"}, "[6]": {"system": "NCI-H226", "assay": "Growth inhibition of human NCI-H226 cells at 10 uM incubated for 48 hrs by sulforhodamine B assay relative to control"}, "[7]": {"system": "NCI-H23", "assay": "Growth inhibition of human NCI-H23 cells at 10 uM incubated for 48 hrs by sulforhodamine B assay relative to control"}, "[8]": {"system": "NCI-H322M", "assay": "Growth inhibition of human NCI-H322M cells at 10 uM incubated for 48 hrs by sulforhodamine B assay relative to control"}, "[9]": {"system": "NCI-H460", "assay": "Growth inhibition of human NCI-H460 cells at 10 uM incubated for 48 hrs by sulforhodamine B assay relative to control"}, "[10]": {"system": "NCI-H522", "assay": "Growth inhibition of human NCI-H522 cells at 10 uM incubated for 48 hrs by sulforhodamine B assay relative to control"}, "[11]": {"system": "COLO 205", "assay": "Growth inhibition of human COLO 205 cells at 10 uM incubated for 48 hrs by sulforhodamine B assay relative to control"}, "[12]": {"system": "HCC 2998", "assay": "Growth inhibition of human HCC 2998 cells at 10 uM incubated for 48 hrs by sulforhodamine B assay relative to control"}, "[13]": {"system": "HCT-116", "assay": "Growth inhibition of human HCT-116 cells at 10 uM incubated for 48 hrs by sulforhodamine B assay relative to control"}, "[14]": {"system": "HCT-15", "assay": "Growth inhibition of human HCT-15 cells at 10 uM incubated for 48 hrs by sulforhodamine B assay relative to control"}, "[15]": {"system": "HT-29", "assay": "Growth inhibition of human HT-29 cells at 10 uM incubated for 48 hrs by sulforhodamine B assay relative to control"}, "[16]": {"system": "KM12", "assay": "Growth inhibition of human KM12 cells at 10 uM incubated for 48 hrs by sulforhodamine B assay relative to control"}, "[17]": {"system": "SW-620", "assay": "Growth inhibition of human SW-620 cells at 10 uM incubated for 48 hrs by sulforhodamine B assay relative to control"}, "[18]": {"system": "SF-268", "assay": "Growth inhibition of human SF-268 cells at 10 uM incubated for 48 hrs by sulforhodamine B assay relative to control"}, "[19]": {"system": "SNB-19", "assay": "Growth inhibition of human SNB-19 cells at 10 uM incubated for 48 hrs by sulforhodamine B assay relative to control"}, "[20]": {"system": "SNB-75", "assay": "Growth inhibition of human SNB-75 cells at 10 uM incubated for 48 hrs by sulforhodamine B assay relative to control"}, "[21]": {"system": "LOX IMVI", "assay": "Growth inhibition of human LOX IMVI cells at 10 uM incubated for 48 hrs by sulforhodamine B assay relative to control"}, "[22]": {"system": "Malme-3M", "assay": "Growth inhibition of human Malme-3M cells at 10 uM incubated for 48 hrs by sulforhodamine B assay relative to control"}, "[23]": {"system": "M14", "assay": "Growth inhibition of human M14 cells at 10 uM incubated for 48 hrs by sulforhodamine B assay relative to control"}, "[24]": {"system": "MDA-MB-435", "assay": "Growth inhibition of human MDA-MB-435 cells at 10 uM incubated for 48 hrs by sulforhodamine B assay relative to control"}, "[25]": {"system": "SK-MEL-28", "assay": "Growth inhibition of human SK-MEL-28 cells at 10 uM incubated for 48 hrs by sulforhodamine B assay relative to control"}, "[26]": {"system": "SK-MEL-5", "assay": "Growth inhibition of human SK-MEL-5 cells at 10 uM incubated for 48 hrs by sulforhodamine B assay relative to control"}, "[27]": {"system": "UACC-257", "assay": "Growth inhibition of human UACC-257 cells at 10 uM incubated for 48 hrs by sulforhodamine B assay relative to control"}, "[28]": {"system": "UACC-62", "assay": "Growth inhibition of human UACC-62 cells at 10 uM incubated for 48 hrs by sulforhodamine B assay relative to control"}, "[29]": {"system": "IGROV-1", "assay": "Growth inhibition of human IGROV-1 cells at 10 uM incubated for 48 hrs by sulforhodamine B assay relative to control"}, "[30]": {"system": "OVCAR-3", "assay": "Growth inhibition of human OVCAR-3 cells at 10 uM incubated for 48 hrs by sulforhodamine B assay relative to control"}, "[31]": {"system": "OVCAR-4", "assay": "Growth inhibition of human OVCAR-4 cells at 10 uM incubated for 48 hrs by sulforhodamine B assay relative to control"}, "[32]": {"system": "OVCAR-5", "assay": "Growth inhibition of human OVCAR-5 cells at 10 uM incubated for 48 hrs by sulforhodamine B assay relative to control"}, "[33]": {"system": "NCI/ADR-RES", "assay": "Growth inhibition of human NCI/ADR-RES cells at 10 uM incubated for 48 hrs by sulforhodamine B assay relative to control"}, "[34]": {"system": "SK-OV-3", "assay": "Growth inhibition of human SK-OV-3 cells at 10 uM incubated for 48 hrs by sulforhodamine B assay relative to control"}, "[35]": {"system": "786-0", "assay": "Growth inhibition of human 786-0 cells at 10 uM incubated for 48 hrs by sulforhodamine B assay relative to control"}, "[36]": {"system": "ACHN", "assay": "Growth inhibition of human ACHN cells at 10 uM incubated for 48 hrs by sulforhodamine B assay relative to control"}, "[37]": {"system": "CAKI-1", "assay": "Growth inhibition of human CAKI-1 cells at 10 uM incubated for 48 hrs by sulforhodamine B assay relative to control"}, "[38]": {"system": "RXF 393", "assay": "Growth inhibition of human RXF 393 cells at 10 uM incubated for 48 hrs by sulforhodamine B assay relative to control"}, "[39]": {"system": "TK-10", "assay": "Growth inhibition of human TK-10 cells at 10 uM incubated for 48 hrs by sulforhodamine B assay relative to control"}, "[40]": {"system": "DU-145", "assay": "Growth inhibition of human DU-145 cells at 10 uM incubated for 48 hrs by sulforhodamine B assay relative to control"}, "[41]": {"system": "MCF7", "assay": "Growth inhibition of human MCF7 cells at 10 uM incubated for 48 hrs by sulforhodamine B assay relative to control"}, "[42]": {"system": "MDA-MB-231", "assay": "Growth inhibition of human MDA-MB-231 cells at 10 uM incubated for 48 hrs by sulforhodamine B assay relative to control"}, "[43]": {"system": "BT-549", "assay": "Growth inhibition of human BT-549 cells at 10 uM incubated for 48 hrs by sulforhodamine B assay relative to control"}, "[44]": {"system": "T47D", "assay": "Growth inhibition of human T47D cells at 10 uM incubated for 48 hrs by sulforhodamine B assay relative to control"}}, "data": [{"compound": "O=C(CN1CCOCC1)Nc1ccc(-c2nc3ccccc3s2)cc1", "values": [{"measurement": "inhibition of growth at 10 µM", "setting": "[1]", "value": 4.51, "unit": "%"}, {"measurement": "inhibition of growth at 10 µM", "setting": "[2]", "value": 0.74, "unit": "%"}, {"measurement": "inhibition of growth at 10 µM", "setting": "[3]", "value": 6, "unit": "%"}, {"measurement": "inhibition of growth at 10 µM", "setting": "[4]", "value": 6.19, "unit": "%"}, {"measurement": "inhibition of growth at 10 µM", "setting": "[5]", "value": 16.7, "unit": "%"}, {"measurement": "inhibition of growth at 10 µM", "setting": "[6]", "value": 4.99, "unit": "%"}, {"measurement": "inhibition of growth at 10 µM", "setting": "[7]", "value": 4.49, "unit": "%"}, {"measurement": "inhibition of growth at 10 µM", "setting": "[8]", "value": -0.11, "unit": "%"}, {"measurement": "inhibition of growth at 10 µM", "setting": "[9]", "value": 0.34, "unit": "%"}, {"measurement": "inhibition of growth at 10 µM", "setting": "[10]", "value": 5.46, "unit": "%"}, {"measurement": "inhibition of growth at 10 µM", "setting": "[11]", "value": -15.3, "unit": "%"}, {"measurement": "inhibition of growth at 10 µM", "setting": "[12]", "value": 12, "unit": "%"}, {"measurement": "inhibition of growth at 10 µM", "setting": "[13]", "value": 3.9, "unit": "%"}, {"measurement": "inhibition of growth at 10 µM", "setting": "[14]", "value": 6.26, "unit": "%"}, {"measurement": "inhibition of growth at 10 µM", "setting": "[15]", "value": -3.04, "unit": "%"}, {"measurement": "inhibition of growth at 10 µM", "setting": "[16]", "value": -6.84, "unit": "%"}, {"measurement": "inhibition of growth at 10 µM", "setting": "[17]", "value": -7.93, "unit": "%"}, {"measurement": "inhibition of growth at 10 µM", "setting": "[18]", "value": -10.3, "unit": "%"}, {"measurement": "inhibition of growth at 10 µM", "setting": "[19]", "value": -0.79, "unit": "%"}, {"measurement": "inhibition of growth at 10 µM", "setting": "[20]", "value": 0.01, "unit": "%"}, {"measurement": "inhibition of growth at 10 µM", "setting": "[21]", "value": 0.08, "unit": "%"}, {"measurement": "inhibition of growth at 10 µM", "setting": "[22]", "value": -17, "unit": "%"}, {"measurement": "inhibition of growth at 10 µM", "setting": "[23]", "value": -1.15, "unit": "%"}, {"measurement": "inhibition of growth at 10 µM", "setting": "[24]", "value": -7.79, "unit": "%"}, {"measurement": "inhibition of growth at 10 µM", "setting": "[25]", "value": -2.13, "unit": "%"}, {"measurement": "inhibition of growth at 10 µM", "setting": "[26]", "value": 7.27, "unit": "%"}, {"measurement": "inhibition of growth at 10 µM", "setting": "[27]", "value": -1.38, "unit": "%"}, {"measurement": "inhibition of growth at 10 µM", "setting": "[28]", "value": -0.01, "unit": "%"}, {"measurement": "inhibition of growth at 10 µM", "setting": "[29]", "value": -5.69, "unit": "%"}, {"measurement": "inhibition of growth at 10 µM", "setting": "[30]", "value": 3.74, "unit": "%"}, {"measurement": "inhibition of growth at 10 µM", "setting": "[31]", "value": -0.52, "unit": "%"}, {"measurement": "inhibition of growth at 10 µM", "setting": "[32]", "value": 6.58, "unit": "%"}, {"measurement": "inhibition of growth at 10 µM", "setting": "[33]", "value": -4.92, "unit": "%"}, {"measurement": "inhibition of growth at 10 µM", "setting": "[34]", "value": -21, "unit": "%"}, {"measurement": "inhibition of growth at 10 µM", "setting": "[35]", "value": -1.3, "unit": "%"}, {"measurement": "inhibition of growth at 10 µM", "setting": "[36]", "value": -4.03, "unit": "%"}, {"measurement": "inhibition of growth at 10 µM", "setting": "[37]", "value": 0.31, "unit": "%"}, {"measurement": "inhibition of growth at 10 µM", "setting": "[38]", "value": -11.4, "unit": "%"}, {"measurement": "inhibition of growth at 10 µM", "setting": "[39]", "value": -12, "unit": "%"}, {"measurement": "inhibition of growth at 10 µM", "setting": "[40]", "value": -9.1, "unit": "%"}, {"measurement": "inhibition of growth at 10 µM", "setting": "[41]", "value": 51.2, "unit": "%"}, {"measurement": "inhibition of growth at 10 µM", "setting": "[42]", "value": 3.16, "unit": "%"}, {"measurement": "inhibition of growth at 10 µM", "setting": "[43]", "value": -3.57, "unit": "%"}, {"measurement": "inhibition of growth at 10 µM", "setting": "[44]", "value": 6.73, "unit": "%"}]}]}
